Laboratory results taken from patent US12655104B2, “Anticancer compounds selective for ER-positive cancers” (THE BOARD OF TRUSTEES OF THE UNIVERSITY OF ILLINOIS, priority 2020, dated 2026).
Like-named read-outs stand apart in the source and are kept apart here.

Legend:
MCF-7 cells = experiment: Alamar blue fluorescence viability (IC50), MCF-7; assay type: cell-based; details: for IC50: Homo sapiens, MCF7
Protocol: (§1) Cancer Cell Lines: Culturing Conditions and Validation. All cell lines were cultured at 37° C. with 5% CO2. All ERα-positive cell lines were grown in media lacking phenol red. MCF-7 were grown in EMEM with 10% FBS and 1% penicillin-streptomycin (P/S). T47D were cultured in MEM with 10% FBS and 1% P/S. TYS and TDG cells were grown in MEM supplemented with 10% CD-FBS and 1% P/S. HCT-116 and MDA-MB-231 cells were cultured in RPMI-1640 supplemented with 10% FBS and 1% P/S. MDA-MB-436 cells were cultured in DMEM supplemented with 10% FBS and 1% P/S. HT-29 were cultured in McCoy's media supplemented with 10% FBS and 1% P/S. All cell lines were used directly from ATCC stocks and/or have been further authenticated using PowerPlex16HS Assay (Promega) as described previously.^54 In short, >1 million cells were harvested and lysed using the cell lysis buffer (50 mM Tris, 50 mM EDTA, 25 mM sucrose, 100 mM NaCl, 1% SDS, pH 8). DNA extraction and short tandem repeats (STRs) profiling for each cell line were carried out at the University of Arizona Genetics Core (UAGC). Autosomal STR profiles were compared to reference databases such as ATCC, DSMZ, and JCRB.
(§2) Alamar Blue Fluorescence for Anticancer Activity (IC50). 2,000-15,000 cells per well were seeded a 96-well plate. Cells were allowed to adhere before DMSO stock solutions of test compounds were added to each well with a final concentration of DMSO in each well=1%; final volume: 100 μL. At the end of the desired incubation time (e.g., 24 or 72 hours), media in each well was aspirated and new fresh media (no compound, 100 μL) was added. Alamar blue solution (4 mg resazurin per 40 mL PBS) was then added (10 μL). After 2-6 hours incubation, each well's fluorescence (λexcit.=555 nm, λemission.=585 nm) was measured using a SpectraMax M3 plate reader (Molecular Devices). Percent dead was determined by comparison to a 100% dead control: 100 μM raptinal treated cells. Dose dependent curves and IC50 were calculated using Origin Pro V10.

[1] = system: anticipatory unfolded protein response (a-UPR); experiment: a-UPR immunoblotting/western blot in MCF-7 cells; assay type: cell-based
Protocol: a-UPR Immunoblotting/Western Blot Procedure. 400,000 MCF-7 cells/per well were seeded into 6 or 12 well plates and allowed to adhere overnight. Media was then aspirated from each well and then fresh media with diluted test compound (0.1% DMSO concentration) was added accordingly. Cells were incubated for 4 or 6 hours, then harvested. PBS-washed cell pellets were then lysed using RIPA buffer containing phosphatase (BioVision) and protease inhibitor cocktail (Calbiochem). Protein concentrations were determined using the BCA assay (Pierce). Lysates containing 10-15 μg of protein were loaded onto 4-20% gradient gels (BioRad), and SDS-PAGE was run. Proteins were then transferred onto membrane (PDVF Millipore) and blots blocked with BSA solution (2 g in 40 mL TBST) for one hour. After blocking, primary antibody was added and incubated overnight (using manufacturer's recommended dilutions). Following overnight incubation, blots were washed with TBST (5-minute incubation for each wash, washed 3 times), then incubated with HRP-linked secondary antibody for 1 hour in TBST. Blots were washed (10-minute incubation for each wash for a total of two ten-minute washes). SuperSignal West Pico Solution was then added following manufacturer's procedures and blots imaged with ChemiDoc.
Antibodies. […]

ERα− cancer cell lines = experiment: Selectivity of cell killing, ERα+ versus ERα− cancer cell lines; assay type: cell-based; details: MDA-MB-231, HCT-116, HT-29; for potencies against ERα− cancer cell lines (in words): 24- and 72-hour incubations
Protocol: as §1, §2

[2] = Simulated gastric fluid (SGF) stability assay; assay type: in vitro ADME; details: for half-life at 100 μM: simulated gastric fluid with pepsin, pH 1.2
Protocol: Simulated Gastric Fluid (SGF) Stability Assay. SGF was prepared fresh by adding 3.2 g pepsin (Sigma Aldrich P7000) to 1000 mL of SGF (Fischer Scientific 7108-16) and the pH adjusted to 1.2 using a pH meter. This SGFwith pepsin solution was then warmed to 37° C. 990 μL of warmed SGFwith pepsin was then aliquoted into multiple Eppendorf tubes, followed by 10 μL of 10 mM DMSO stock solutions of test compounds. Erythromycin (MedChemExpress HY-B0220) is a positive control for this stability assay. Samples were incubated at 37° C. for the entire experiment with vortexing every 15 minutes. At each desired time point (0, 15, 30, 60, 120 minutes), a 100 μL aliquot is removed and quenched into 50 μL of acetonitrile. Samples are stored at 4° C. until all time points are complete. Samples were then vortexed and then clarified at 3,000 RPM for 10 minutes in a 4° C. centrifuge. Supernatants were collected and compound concentrations determined by LC-MS/MS (UIUC Metabolomics Center, Urbana, IL.). Determined compound concentrations were used to calculate percent remaining compared to t=0 samples.

CD-1 mice = experiment: Maximum tolerated dose (MTD) in mice; assay type: in vivo; details: mouse, in vivo, iv
Description: (§3) Maximum Tolerated Dose (MTD) Experiments in Mice and Rats. […] Rodents were monitored for signs of distress, lethargy, neurotoxicity, and so forth for multiple days after compound administration. […] The MTD was defined as the maximum dose in which any acute side effects observed were tolerated and no lethality observed.

[3] = system: CD Sprague Dawley IGS rats; experiment: Maximum tolerated dose (MTD) in rats; assay type: in vivo; details: rat, in vivo
Description: as §3

[4] = In vitro metabolite assessment of ErSO; assay type: in vitro ADME
T47D = experiment: Alamar blue fluorescence viability (IC50), T47D; assay type: cell-based; details: Homo sapiens, 24 h, read-out: IC50 24 hr (μM)
Protocol: as §1, with “DNA extraction and short tandem repeats (STRs) profiling for each cell line were carried out at the University of Arizona Genetics Core (UAGC). Autosomal STR profiles were compared to reference databases such as ATCC, DSMZ, and JCRB.” left out
(§4) Alamar Blue Fluorescence for Anticancer Activity (IC50). […] After 2-6 hours incubation, each well's fluorescence (λexcit.=555 nm, λemission.=585 nm) was measured using a SpectraMax M3 plate reader (Molecular Devices). Percent dead was determined by comparison to a 100% dead control: 100 μM raptinal treated cells. Dose dependent curves and IC50 were calculated using Origin Pro V10.

T47D-ERaY537S (TYS) = experiment: Alamar blue fluorescence viability (IC50), TYS; assay type: cell-based; details: 24 h, read-out: IC50 24 hr (μM)
Protocol: as §1, with “DNA extraction and short tandem repeats (STRs) profiling for each cell line were carried out at the University of Arizona Genetics Core (UAGC). Autosomal STR profiles were compared to reference databases such as ATCC, DSMZ, and JCRB.” left out
as §4

T47D-ERαD538G (TDG) = experiment: Alamar blue fluorescence viability (IC50), TDG; assay type: cell-based; details: TDG, ERα positive, 24 hr; read-out: IC50 24 hr
Protocol: as §1, with “DNA extraction and short tandem repeats (STRs) profiling for each cell line were carried out at the University of Arizona Genetics Core (UAGC). Autosomal STR profiles were compared to reference databases such as ATCC, DSMZ, and JCRB.” left out
as §4

MDA-MB-231 = experiment: Alamar blue fluorescence viability (IC50), MDA-MB-231; assay type: cell-based; details: Homo sapiens, MDA-MB-231, ERα negative
Protocol: as §1, §2

MDA-MB-436 = experiment: Alamar blue fluorescence viability (IC50), MDA-MB-436; assay type: cell-based; details: Homo sapiens
Protocol: as §1, §2

HCT-116 = experiment: Alamar blue fluorescence viability (IC50), HCT-116; assay type: cell-based; details: for IC50: Homo sapiens, HCT-116, ERα negative
Protocol: as §1, §2

HT-29 = experiment: Alamar blue fluorescence viability (IC50), HT-29; assay type: cell-based; details: Homo sapiens, HT-29, ERα negative
Protocol: as §1, §2

[5] = Pharmacokinetic (PK) studies in mice; assay type: in vivo
Protocol: Pharmacokinetic (PK) Studies. […] Mice were then sacrificed in cohorts of 3 at time points (#, #, #). Blood was collected, centrifuged, and plasma separated for quantification of test compound utilizing LC-MS/MS (UIUC Metabolomics Center, Urbana, IL.). Determined compound concentration was then analyzed using non-linear regression programing (WinNonlin) and pharmacokinetic parameters estimated.

[6] = Maximum tolerated dose (MTD) in mice; assay type: in vivo; details: female, CD-1, mouse, in vivo, iv
Description: as §3

[7] = Maximum tolerated dose (MTD) in rats; assay type: in vivo; details: Sprague Dawley, rat, in vivo, iv
Description: as §3

MCF-7 tumors = experiment: MCF-7 orthotopic tumor model; assay type: in vivo, mice; details: I.V. 5 mg/kg once-a-week, three total doses
Protocol: MCF-7 Orthotopic Tumor Model. Nu/J ovariectomized mice (Jackson's lab) were supplemented with a 60-day E2 pellet (0.36 mg, Innovative Research of America) 2-3 days prior to tumor cell inoculation. MCF-7 cells (5×10^6, in 1:1 HBSS:matrigel) were inoculated into the mammary fat pad and allowed to establish and tumors grown to ˜300-400 mm^3 (˜21-28 days to establish). […] Tumor size was measured by caliper, and mouse weights were recorded.

canines = details: cited from earlier work
[8] = 100 μM in SGF with pepsin, one-phase decay, read-out: t1/2 (min) (95% CI)
[9] = MCF-7 cells, 24 hours, Alamar blue, mean ± s.e.m., read-out: IC50
[10] = female, CD-1, mouse, plasma, iv, I.V. 20 mg/kg

## O=C1Nc2c(C(F)(F)F)cccc2[C@]1(c1ccc(O)cc1)N1CCC(F)(F)CC1 (single isomer, unassigned) [(S)-2]
MCF-7 cells; MCF-7 cells
  anticancer activity against MCF-7 cells (in words): devoid of any activity
[1]
  a-UPR activation (P-AMPK, P-EIF2α, cleavage of ATF6α p90), western blot: No activation of the a-UPR

## O=C1Nc2c(C(F)(F)F)cccc2[C@@]1(c1ccc(O)cc1)N1CCC(F)(F)C1 [(R)-24, (R)-3-(3,3-difluoropyrrolidin-1-yl)-3-(4-hydroxyphenyl)-7-(trifluoromethyl)indolin-2-one]
ERα− cancer cell lines
  potencies against ERα− cancer cell lines (in words): double-digit micromolar
[2]; 100 μM in SGF with pepsin
  % Remaining after 120 min (SD): 20±1%
[2]; [8]
  half-life at 100 μM: 62 min

## O=C1Nc2c(C(F)(F)F)cccc2[C@@]1(c1ccc(O)cc1)N1CC(F)(F)C(F)(F)C1 [Compound (R)-26, (R)-3-(4-hydroxyphenyl)-3-(3,3,4,4-tetrafluoropyrrolidin-1-yl)-7-(trifluoromethyl)indolin-2-one]
MCF-7 cells; MCF-7, 24 and 72 hr, read-out: IC50 values
  IC50: 0.004 to 0.005 µM
ERα− cancer cell lines
  fold change MCF-7 versus ERα− cell lines: ≥ 3500
  potencies against ERα− cancer cell lines (in words): double-digit micromolar
[2]; 100 μM in SGF with pepsin
  % Remaining after 120 min (SD): 27±1%
[2]; [8]
  half-life at 100 μM: 77 min

## O=C1Nc2c(C(F)(F)F)cccc2[C@]1(c1ccc(OC(F)(F)F)cc1)c1ccc(O)c(O)c1 [ErSO-OH, (S)-3-(3,4-dihydroxyphenyl)-3-(4-(trifluoromethoxy)phenyl)-7-(trifluoromethyl)indolin-2-one]
MCF-7 cells; [9]
  IC50: 0.024 µM
CD-1 mice
  intravenous tolerability in mice (in words): greater intravenous tolerability in mice
[3]
  rat tolerability (in words): no gains in rat tolerability
[4]
  abundance as metabolite of ErSO: < 1%

## O=C1Nc2c(C(F)(F)F)cccc2[C@@]1(c1ccc(O)cc1)N1CCCC(F)(F)C1 [(R)-23, (R)-3-(3,3-difluoropiperidin-1-yl)-3-(4-hydroxyphenyl)-7-(trifluoromethyl)indolin-2-one]
ERα− cancer cell lines
  potencies against ERα− cancer cell lines (in words): double-digit micromolar
[2]; 100 μM in SGF with pepsin
  % Remaining after 120 min (SD): 0±0%
[2]; [8]
  half-life at 100 μM: 10 min

## O=C1Nc2c(C(F)(F)F)cccc2[C@@]1(c1ccc(O)cc1)c1ccc(OC(F)(F)F)cc1 [ErSO, (R)-3-(4-hydroxyphenyl)-3-(4-(trifluoromethoxy)phenyl)-7-(trifluoromethyl)indolin-2-one, reference compound]
MCF-7 cells; MCF-7, ERα positive, 24 hr, read-out: IC50 24 hr
  IC50: 0.02 ± 0.002 µM
MCF-7 cells; MCF-7, ERα positive, 72 hr, read-out: IC50 72 hr
  IC50: 0.014 ± 0.001 µM
MCF-7 cells; [9]
  IC50: 0.02 µM
T47D
  IC50: 0.02 ± 0.001 µM
T47D-ERaY537S (TYS)
  IC50: 0.01 ± 0.001 µM
T47D-ERαD538G (TDG)
  IC50: 0.015 ± 0.001 µM
MDA-MB-231; 24 hr, read-out: IC50 24 hr
  IC50: 23 ± 3 µM
MDA-MB-231; 72 hr, read-out: IC50 72 hr
  IC50: 8 ± 1 µM
MDA-MB-436; MDA-MB-436, 24 h, read-out: IC50 24 hr (μM)
  IC50: 22 ± 1 µM
MDA-MB-436; MDA-MB-436, 72 h, read-out: IC50 72 hr (μM)
  IC50: 14 ± 1 µM
HCT-116; HCT-116 cells, bottom of IC50 curve
  effects bottom out at (% cell death at lower concentrations): ~38%
HCT-116; 24 hr, read-out: IC50 24 hr
  IC50: 11 µM
HCT-116; 72 hr, read-out: IC50 72 hr
  IC50: 0.26 µM
HT-29; 24 hr, read-out: IC50 24 hr
  IC50: 0.21 ± 0.06 µM
HT-29; 72 hr, read-out: IC50 72 hr
  IC50: 0.25 ± 0.07 µM
[2]; 100 μM in SGF with pepsin
  % Remaining after 120 min (SD): 93±1%
[2]; SGF with pepsin, read-out: half-life in SGF
  half-life at 100 μM: > 120 min
[5]; I.V. 20 mg/kg
  CL: 1.98 L/h/kg
[5]; [10]
  AUC: 10.1 µg·h/mL
  Cmax: 7.71 µg/mL
[5]; female, CD-1, mouse, plasma, iv, I.V. 20 mg/kg, read-out: Vss
  Vd: 10.2 L/kg
[5]; female, CD-1, mouse, plasma, po, read-out: oral availability F %
  bioavailability: 47%
[6]
  MTD: 20 mg/kg
[7]
  MTD: 10 to 15 mg/kg
MCF-7 tumors
  mouse weight change during MCF-7 study: no significant weight change
canines
  tolerated oral dose: greater than 150 mg/kg
